Patent publication US20240350542A1, “ANTICANCER T CELL THERAPY PRODUCT-ASSISTING COMPOSITION COMPRISING DEPLETING ANTI-CD4 MONOCLONAL ANTIBODY AND USE THEREOF” (NATIONAL CANCER CENTER, priority 2018, published 2024)
Like-named read-outs stand apart in the source and are kept apart here.

Assays:
[1] = tested on: inguinal lymph node and spleen cell number
Protocol: (§1) Specifically, 2×10^5 B16-F10 melanoma cancer cells were subcutaneously injected into the dorsal area of a C57BL/6 mouse to induce the formation of cancer tissue. At the same time, aPmel-1 was prepared in the same manner as in Example 1. aPmel-1 and IL-2 were administered in the same manner as in Example 1, and transient immunodeficiency was induced by intraperitoneally injecting 150, 200 and 300 mg/kg of cyclophosphamide (CTX) two days before the aPmel-1 administration. In addition, to confirm a period of maintaining transient immunodeficiency according to the dose of CTX, 150, 200 and 300 mg/kg of CTX was intraperitoneally injected into C57BL/6 mice once, and an inguinal lymph node and the spleen of the mice were collected, followed by single cell suspension and then counting a cell number.

[2] = tested on: B16-F10 melanoma cancer cells
Protocol: as §1

## O=P1(N(CCCl)CCCl)NCCCO1 (stereo not drawn) [CTX, cyclophosphamide]
[1]; C57BL/6, 150 mg/kg CTX
  transient immunodeficiency effect: insignificant
[1]; C57BL/6, 200 mg/kg CTX intraperitoneally once
  period the immunodeficiency effect was maintained: approximately 2 weeks
[2]; 300 mg/kg or more of CTX
  toxicity to the mouse: can be toxic to the mouse, leading to the death of the mouse
[2]; C57BL/6, 150 mg/kg CTX only
  survival of mouse: up to 35 days
[2]; C57BL/6, 150 mg/kg CTX only, vs NT
  growth of cancer tissue: cancer tissue grew more slowly
[2]; C57BL/6, 200 mg/kg CTX only
  growth of cancer tissue: slower growth of cancer tissue than the 150 mg/kg CTX-administered mouse
  survival of mouse: up to 45 days
[2]; C57BL/6, 300 mg/kg CTX only
  growth of cancer tissue: slower growth of cancer tissue than when 200 mg/kg CTX-administered mouse
  survival of mouse: up to 60 days
